Structures are written as SMILES.

The source of these data is ChEMBL document CHEMBL1177858, “Cytotoxicity and topo I targeting activity of substituted 10--nitrogenous heterocyclic aromatic group derivatives of SN-38” (Eur J Med Chem, 2010).

Experiment [1] has as its target T1, DNA topoisomerase 1 (Homo sapiens) (UniProt P11387).
T1 sequence (whole entry): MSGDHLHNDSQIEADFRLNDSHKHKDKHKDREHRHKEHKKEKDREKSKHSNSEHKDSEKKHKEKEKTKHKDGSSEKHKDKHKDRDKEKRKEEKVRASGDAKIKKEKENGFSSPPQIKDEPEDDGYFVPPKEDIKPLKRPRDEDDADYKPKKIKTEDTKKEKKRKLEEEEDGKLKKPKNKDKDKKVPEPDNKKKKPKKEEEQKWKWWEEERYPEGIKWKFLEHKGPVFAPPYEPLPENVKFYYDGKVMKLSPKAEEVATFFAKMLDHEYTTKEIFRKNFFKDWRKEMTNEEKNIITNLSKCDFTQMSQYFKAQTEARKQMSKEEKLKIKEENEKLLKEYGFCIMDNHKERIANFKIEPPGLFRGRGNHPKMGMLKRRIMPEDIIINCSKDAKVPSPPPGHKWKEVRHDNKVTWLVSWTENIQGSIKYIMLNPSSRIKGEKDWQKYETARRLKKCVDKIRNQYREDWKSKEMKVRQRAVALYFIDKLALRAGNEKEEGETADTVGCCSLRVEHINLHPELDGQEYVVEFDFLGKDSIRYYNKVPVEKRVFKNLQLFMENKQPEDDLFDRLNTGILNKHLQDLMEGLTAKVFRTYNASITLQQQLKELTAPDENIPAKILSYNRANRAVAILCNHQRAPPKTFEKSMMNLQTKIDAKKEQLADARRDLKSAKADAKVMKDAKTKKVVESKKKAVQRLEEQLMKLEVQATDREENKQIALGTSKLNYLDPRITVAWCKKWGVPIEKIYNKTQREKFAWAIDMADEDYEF
Briefly: Inhibition of topoisomerase 1-mediated supercoiled pBR322 relaxation assessed as change in band intensity by electrophoresis relative to camptothecin. Further: test concentration or dose not given here.

A further experiment relates to KB. Briefly: Cytotoxicity against human KB cells after 3 days by MTT assay. The format is functional, cell-based. Background: Formazan colour is commonly taken as a measure of viable cells.
Another experiment has as its system HCT-8. Briefly: Cytotoxicity against human HCT8 cells after 3 days by MTT assay. The format is functional, cell-based.
For a further experiment, the system named is MCF7. Briefly: Cytotoxicity against human MCF7 cells after 3 days by MTT assay. The format is functional, cell-based.

Take `CC[C@@]1(O)C(=O)OCc2c1cc1n(c2=O)Cc2cc3cc(OCCC[n+]4cccc(C)c4)ccc3nc2-1.[Br-]`: the fold change (FC) in experiment [1] was 0.72. In addition, the IC50 in the experiment with KB and in the experiment on HCT-8 was less than 0.01 nM/ml each time.
Regarding `CC[C@@]1(O)C(=O)OCc2c1cc1n(c2=O)Cc2cc3cc(OCCCn4cnc5cncnc54)ccc3nc2-1`, in experiment [1], the fold change (FC) is 0.61. Besides, the values for the IC50 in the experiment with MCF7 and in the experiment on HCT-8 were 2.09 nM/ml and 1.81 nM/ml, respectively.
As to `CC[C@@]1(O)C(=O)OCc2c1cc1n(c2=O)Cc2cc3ccccc3nc2-1` [CAMPTOTHECIN], the fold change (FC) in experiment [1] came out at 1. The IC50 in the experiment with KB is on record as less than 0.013 nM/ml; in the experiment on MCF7, 0.02 nM/ml; in the experiment on HCT-8, less than 0.013 nM/ml.
Regarding `CC[C@@]1(O)C(=O)OCc2c1cc1n(c2=O)Cc2cc3cc(OCC[n+]4cccc(C(C)=O)c4)ccc3nc2-1.[Br-]`, the fold change (FC) in experiment [1] is 1.04. The IC50 is on record as 6.28 nM/ml in the experiment on KB and 5.88 nM/ml with HCT-8.
Consider `CCc1c2c(nc3ccc(OCCCn4ccnc4)cc13)-c1cc3c(c(=O)n1C2)COC(=O)[C@]3(O)CC`, for which the fold change (FC) in experiment [1] is 1.01. Also, the IC50 in the experiment on KB is reported as 0.32 nM/ml; in the experiment with MCF7, 0.16 nM/ml; in the experiment with HCT-8, 0.06 nM/ml.
In the case of `CCc1c2c(nc3ccc(OCCC[n+]4cccc(F)c4)cc13)-c1cc3c(c(=O)n1C2)COC(=O)[C@]3(O)CC.[Br-]`, the fold change (FC) in experiment [1] was determined as 0.92. In addition, the IC50 with KB is on record as 1.9 nM/ml; in the experiment on MCF7, 1.92 nM/ml; with HCT-8 it was 0.43 nM/ml.
Take `CCc1c2c(nc3ccc(OCCC[n+]4cccc(C(C)=O)c4)cc13)-c1cc3c(c(=O)n1C2)COC(=O)[C@]3(O)CC.[Br-]`: in experiment [1], the fold change (FC) amounted to 0.86. Moreover, the IC50 with KB came out at 4.82 nM/ml; with MCF7, 2.81 nM/ml; in the experiment with HCT-8, 2.24 nM/ml.
As for `CC[C@@]1(O)C(=O)OCc2c1cc1n(c2=O)Cc2cc3cc(OCCCn4cncn4)ccc3nc2-1`, the fold change (FC) in experiment [1] turned out to be 0.62. The IC50 was found to be 0.62 nM/ml with MCF7 and 0.9 nM/ml in the experiment with HCT-8.
`CCc1c2c(nc3ccc(OCC[n+]4cccc(C(C)=O)c4)cc13)-c1cc3c(c(=O)n1C2)COC(=O)[C@]3(O)CC.[Br-]`: in experiment [1], the fold change (FC) was determined as 0.97. In addition, the IC50 in the experiment with KB was found to be 0.09 nM/ml; in the experiment on MCF7 it was 0.26 nM/ml; with HCT-8, 0.09 nM/ml.
Take `CCc1c2c(nc3ccc(OCC[n+]4cccc(CO)c4)cc13)-c1cc3c(c(=O)n1C2)COC(=O)[C@]3(O)CC.[Br-]`: the fold change (FC) in experiment [1] came out at 1.02. The IC50 was 0.61 nM/ml in the experiment on KB, 1.74 nM/ml in the experiment on MCF7 and 0.85 nM/ml in the experiment with HCT-8.
Turning to `CC[C@@]1(O)C(=O)OCc2c1cc1n(c2=O)Cc2cc3cc(OCCCn4ccnc4)ccc3nc2-1`, in experiment [1], the fold change (FC) worked out at 0.7. Moreover, the figures for the IC50 in the experiment on MCF7 and with HCT-8 were 0.38 nM/ml and 0.98 nM/ml, respectively.
Take `CCc1c2c(nc3ccc(OCCC[n+]4cccc(C)c4)cc13)-c1cc3c(c(=O)n1C2)COC(=O)[C@]3(O)CC.[Br-]`: in experiment [1], the fold change (FC) was 0.97. In addition, the IC50 with KB is given as less than 0.01 nM/ml; in the experiment on MCF7 it was 0.11 nM/ml; in the experiment with HCT-8, less than 0.01 nM/ml.
Consider `CCc1c2c(nc3ccc(OCCC[n+]4ccccc4)cc13)-c1cc3c(c(=O)n1C2)COC(=O)[C@]3(O)CC.[Br-]`, for which the fold change (FC) in experiment [1] was found to be 0.96. The results for the IC50 in the experiment with KB, in the experiment on MCF7 and with HCT-8 were 0.02 nM/ml, 0.14 nM/ml and 0.04 nM/ml, respectively.
With `CCc1c2c(nc3ccc(OCCC[n+]4cccc(CO)c4)cc13)-c1cc3c(c(=O)n1C2)COC(=O)[C@]3(O)CC.[Br-]`, in experiment [1], the fold change (FC) was determined as 0.95. Besides, the figures for the IC50 with KB, in the experiment on MCF7 and in the experiment on HCT-8 were 0.52 nM/ml, 1.38 nM/ml and 0.13 nM/ml, respectively.
Regarding `CC[C@@]1(O)C(=O)OCc2c1cc1n(c2=O)Cc2cc3cc(OCC[n+]4cccc(F)c4)ccc3nc2-1.[Br-]`, the fold change (FC) in experiment [1] is 0.85. In addition, the IC50 is recorded as 0.68 nM/ml in the experiment on KB and 0.73 nM/ml in the experiment with HCT-8.
In the same order, the values of `CC[C@@]1(O)C(=O)OCc2c1cc1n(c2=O)Cc2cc3cc(OCC[n+]4cccc(C)c4)ccc3nc2-1.[Br-]` are 1.02, 1.3 nM/ml and 2.95 nM/ml.
For the molecule `CC[C@@]1(O)C(=O)OCc2c1cc1n(c2=O)Cc2cc3c(CN(C)C)c(O)ccc3nc2-1` [TOPOTECAN], the IC50 stood at 0.07 nM/ml in the experiment with KB, 0.15 nM/ml in the experiment on MCF7 and 0.07 nM/ml with HCT-8.
With `CC[C@@]1(O)C(=O)OCc2c1cc1n(c2=O)Cc2cc3cc(OCC[n+]4cccc(CO)c4)ccc3nc2-1.[Br-]`, in experiment [1], the fold change (FC) is 0.7. Besides, the IC50 is 6.57 nM/ml with KB and 7.49 nM/ml in the experiment with HCT-8.
On to `CCc1c2c(nc3ccc(OCCCn4cncn4)cc13)-c1cc3c(c(=O)n1C2)COC(=O)[C@]3(O)CC`, for which the fold change (FC) in experiment [1] worked out at 0.64. In addition, the IC50 in the experiment on KB was determined as 0.04 nM/ml; in the experiment on MCF7 it was 0.08 nM/ml; with HCT-8, 0.04 nM/ml.
As for `CC[C@@]1(O)C(=O)OCc2c1cc1n(c2=O)Cc2cc3cc(OCCCOc4cc(C(F)(F)F)ncn4)ccc3nc2-1`, the fold change (FC) in experiment [1] is 0.67. Besides, the IC50 in the experiment on MCF7 and with HCT-8 was 0.18 nM/ml each time.
With `CCc1c2c(nc3ccc(OCC[n+]4ccccc4)cc13)-c1cc3c(c(=O)n1C2)COC(=O)[C@]3(O)CC.[Br-]`, the fold change (FC) in experiment [1] was 1.12. For the same molecule, the figures for the IC50 in the experiment on KB, in the experiment with MCF7 and in the experiment on HCT-8 were 0.08 nM/ml, 1.56 nM/ml and 0.52 nM/ml, respectively.
For `CCc1c2c(nc3ccc(OCC[n+]4cccc(F)c4)cc13)-c1cc3c(c(=O)n1C2)COC(=O)[C@]3(O)CC.[Br-]` the same measures were 1.07, 0.19 nM/ml, 0.25 nM/ml and 0.1 nM/ml.
Turning to `CCc1c2c(nc3ccc(OCC[n+]4cccc(C)c4)cc13)-c1cc3c(c(=O)n1C2)COC(=O)[C@]3(O)CC.[Br-]`, in experiment [1], the fold change (FC) came out at 1.07. Moreover, the IC50 in the experiment on KB was found to be 0.06 nM/ml; in the experiment on MCF7 it was 5.04 nM/ml; in the experiment with HCT-8 it was 0.27 nM/ml.
Consider `CCc1c2c(nc3ccc(OCCCn4cnc5cncnc54)cc13)-c1cc3c(c(=O)n1C2)COC(=O)[C@]3(O)CC`, for which the fold change (FC) in experiment [1] was 0.72. Further, the IC50 is recorded as 0.13 nM/ml with KB, 1.23 nM/ml with MCF7 and 0.88 nM/ml in the experiment with HCT-8.
As for `CC[C@@]1(O)C(=O)OCc2c1cc1n(c2=O)Cc2cc3cc(OCC[n+]4ccccc4)ccc3nc2-1.[Br-]`, the fold change (FC) in experiment [1] is 1.03. The IC50 with KB turned out to be 0.72 nM/ml; in the experiment on HCT-8, 0.97 nM/ml.
Turning to `CC[C@@]1(O)C(=O)OCc2c1cc1n(c2=O)Cc2cc3cc(OCCC[n+]4ccccc4)ccc3nc2-1.[Br-]`, in experiment [1], the fold change (FC) worked out at 0.7. Moreover, the results for the IC50 in the experiment with KB and in the experiment on HCT-8 were 0.06 nM/ml and 0.07 nM/ml, respectively.
As to `CCc1c2c(nc3ccc(OCCCOc4cc(C(F)(F)F)ncn4)cc13)-c1cc3c(c(=O)n1C2)COC(=O)[C@]3(O)CC`, the fold change (FC) in experiment [1] is 0.59. The IC50 is 0.02 nM/ml in the experiment on KB, 0.08 nM/ml in the experiment with MCF7 and 0.07 nM/ml in the experiment on HCT-8.
